Columns and labels:
293GP and MCF-7 cells = assay: Effect of RNA/protein synthesis inhibitors on Ea-4 induced morphological change; format: cell-based, human; details: 24 hours
Protocol: To study the effects of α-aminitin and cycloheximide, known inhibitors of RNA and protein synthesis, respectively, on morphological changes induced by rtEa-4-peptide, about 1-2×10^5 of ZR-75-1 and 293GP cells, re-suspended in their respective basal medium without FBS, were plated in a 6-well culture chamber. Prior to plating the cells, an acid-washed coverslip was placed in each well of the culture chamber. Each culture was treated with recombinant trout Ea-4-peptide at 0.8 µM, and with either α-aminitin at 10 µg/mL (an RNA synthesis inhibitor) or with cycloheximide at 1.0 µg/mL (a protein synthesis inhibitor). The cell cultures were incubated at 37° C. under a humidified atmosphere of 5% CO2. Coverslips were removed from the culture chamber 24 hours after initiation of the treatment and observed under an Olympic inverted microscope equipped with differential interference phase contrast objective lenses (final magnification, 200×). The viability of the inhibitor-treated cells was further determined by a dye extrusion assay.
To determine whether the morphological changes induced by the Ea-4 peptides requires synthesis of new proteins or of RNA, 293GP and MCF-7 cells were cultured under the same conditions as described above. Ea-4 peptide-induced morphological changes in 293GP and MCF-7 cells were abolished by treatment with cycloheximide or α-aminitin (FIG. 4).

[1] = system: MCF-7, HT-29, HepG2, ZR-75-1, SK-N-F1, or HC cells; assay: Morphological change assay in tumor cell lines; format: cell-based, human and fish; details: 2.5 nM, 24 hours, serum-free basal medium
Protocol: (§1) Approximately 1-2×10^5 of MCF-7, ZR-75-1, HT-29, HepG2, 293GP, HC or SK-N-F1 cells re-suspended in their respective basal medium without fetal bovine serum (FBS) were plated in a 6-well culture chamber. Prior to plating cells, an acid-washed coverslip was placed in each well of the culture chamber. Recombinant rainbow trout E-peptides (rtEa-2, rtEa-3 or rtEa-4 peptide at 0.8 µM), human IGF-I (hIGF-1, 2.5 nM) or the same amount of control protein was added to each well and the cell cultures were incubated at 37° C. under a humidified atmosphere of 5% CO2. The control protein was prepared from E. coli cells carrying the expression plasmid but without the E-peptide gene according to the purification method described by Tian et al. (1999). Coverslips were removed from the culture chamber 24 hours after initiation of the treatment and observed under an Olympic inverted microscope equipped with differential interference phase contrast objective lenses or phase contrast objective lens (final magnification, 200×). The morphological change assay was performed at least 10 times with different batches of Ea-4 peptide preparations.
Oncogenic transformed or established cancer cells derived from human and fish (MCF-7, HT-29, HepG2, ZR-75-1, SK-N-F1, or HC cells) were plated in their respective serum-free basal medium supplemented with 0.8 µM of the trout recombinant Ea-4-peptide, with the control protein, or with 2.5 nM of the recombinant hlGF-I and the cultures were examined 24 hours later under an inverted microscope equipped with differential interference phase contrast objectives. […] The rtEa-4 peptide treated cells developed several pseudopodia-like structures to establish contact with neighboring cells similar to that seen in untransformed or non-malignant cells.
Because each of these tumor cell lines obtained from ATCC contains a mixed population of tumorous and nontumorous cells, only between 25-40% of the cells from each cell line responded to induction by rtEa-4-peptide. […]

[2] = system: SK-N-F1 neuroblastoma cells; assay: Neurite-like process outgrowth / morphological differentiation; format: cell-based, human; details: 5 nM
Protocol: Cells under various treatment conditions were maintained at 37° C. in a 5% CO2 incubator and observed from 30 minutes to 72 hours after incubation (synthetic human Ea- and Eb-peptide were chemically synthesized at the Biotechnology Center, University of Connecticut). For treatment with synthetic hEa, hEb peptide or hlGF-I, 1×10^5 cells were plated in each well of a 12-well culture plate in DMEM/F12 (1:1) supplemented with 0.4-3.2 µM of synthetic hEa-, hEb-peptide and/or 5-10 nM of hlGF-I.
Neuroblastoma SK-N-F1 cells (10^5) were seeded into 12-well culture plates in DMEM/F12 (1:1) supplemented with 0-3.2 µM of synthetic hEb-peptide, or buffer control, and incubated at 37° C. in a 5% CO2 humidified incubator.
Cell images were taken by random sampling at various time points using a MicroMAX CCD camera (Princeton Instruments, Bozeman, Mont.). Approximately 1000 cells were analyzed from each treatment, carried out in triplicate. Cells with neurites longer than one cell body diameter (>20 µm for SK-N-F1 cells) were scored as positive neurite-bearing (Fagerstrom, et al., Cell Growth Differ., 7: 775-85, 1996; Morrione, et al., Cancer Res. 60: 2263-72, 2000). The percentage of neurite-bearing cells and the respective length of neurites were measured with reference to a stage micrometer and analyzed using the public domain NIH Image program (developed at the U.S. National Institutes of Health and available on the Internet at http://rsb.info.nih.gov/nih-image).
To further characterize the dose-response relationship and time course of hEb peptide in inducing neurite-like process outgrowth, SK-N-F1 neuroblastoma cells were treated with various amounts (0 to 3.2 µM) of hEb peptide over a course of 72 hours. Images of cells were taken by random sampling after 1 h, 6 h, 24 h, 48 h and 72 h of incubation (see FIG. 11B). The average length of neurite-like process outgrowth was measured by random sampling of more than 1000 cells at various time points. The neurite-like processes started to be visible as early as 0.5-1 hour after the addition of hEb peptide. The effect of hEb peptide in inducing neurite-like outgrowth was dose-dependent, as evident from a comparison of cells treated with 0.4 µM hEb peptide with those treated with 0.8-3.2 µM hEb peptide over 24-72 hours. The maximum effect of hEb peptide was observed 48 hours after the addition of 3.2 µM hEb peptide, with an average neurite length of 50 to 60 µm (Table 1, below).

[3] = system: neuroblastoma SK-N-F1 cells; assay: Soft agar colony formation (hEb peptide); format: cell-based, human; details: 5 nM
Protocol: The effect of hEb-peptide on in vitro colony formation was tested in the presence or absence of either the mature hlGF-I or fetal bovine serum (FIG. 12). Human neuroblastoma SK-N-F1 cells (10^4) were mixed with 0.4% soft agar supplemented with or without hEb peptide (3.2 µM), IGF-I (5 nM) and/or fetal bovine serum (2.5%), as indicated. The cell mixtures were seeded on top of a solidified basal medium DMEM/F12 (1:1) containing 0.5% agar. Medium supplemented with various peptides or serum were overlaid on top of the solidified cell layer followed by a two-week period incubation at 37° C. in a 5% CO2 humidified incubator. The percentage of cells formed into colonies with a diameter greater than 100 µm Macpherson, Tissue culture methods and applications, pp 276-80: N.Y. Academic Press, 1973) were scored in triplicate and subjected to Student t-test analysis. At least three independent assays under each treatment conditions were carried out.

293GP or ZR-75-1 cells = assay: Morphological change by Ea-2, Ea-3, Ea-4 peptides; format: cell-based, human; details: 0.8 μM, 24 hours
Protocol: as §1
Cells were again cultured as described above. Twenty-four hours after treatment with 0.8 µM of E-peptides or the control protein, the cells were observed under an Olympic inverted microscope equipped with differential interference phase contrast objective lenses (200× magnification). […] To confirm this hypothesis, synthetic peptides specific to Ea-1-, Ea-2-, Ea-3- and Ea-4-peptide (Ea-1sp, Ea-2sp, Ea-3sp and Ea-4sp) specific sequence (see FIG. 1) were prepared and tested for their activities to induce morphological change in ZR-75-1 cells. For FIG. 6, cells were cultured in F12/DME medium without FBS as described above. Twenty-four hours after treatment with 0.8 µM of synthetic peptide containing Ea-1 sp, Ea-2sp, Ea-3sp or Ea-4sp specific sequence or the control protein, the cells were observed under an Olympic inverted microscope equipped with differential interference phase contrast objective lenses (200× magnification).

[4] = system: cultured BALB/3T3 fibroblast; details: recombinant peptides; cited from earlier work
[5] = system: NIH 3T3 cells and caprine mammary epithelium cells (CMEC); details: recombinant peptides; cited from earlier work

Molecule: C[C@@H]1C[C@@H]([C@H](O)CC2CC(=O)NC(=O)C2)C(=O)[C@@H](C)C1 [cycloheximide]
- Ea-4 peptide-induced morphological changes (293GP and MCF-7 cells; cycloheximide 1.0 μg/mL with Ea-4 0.8 μM): abolished

Molecule: .alpha.-aminitin
- Ea-4 peptide-induced morphological changes (293GP and MCF-7 cells; α-aminitin 10 μg/mL with Ea-4 0.8 μM): abolished

Molecule: hlGF-I: recombinant mature human insulin-like growth factor I [reference compound]
- morphological change [1]: rounded morphology
- morphological change [2]: remained rounded and formed aggregated clusters
- colony formation [3]: strongly stimulated colony formation

Molecule: rtEa-2: recombinant Ea-2 peptide of rainbow trout pro-IGF-I, 47 amino acid residues (SEQ ID NO: 4) (RSVRAQRHTDMPRTPKKPLSGHSHPSCKEVHQKNSSRGNTGGRNYRM; Oncorhynchus mykiss)
- induction of morphological change (293GP or ZR-75-1 cells): able to induce morphological change
- mitogenic activity [4]: possess mitogenic activity
- mitogenic activity [5]: possess mitogenic activity

B1: rtEa-3: recombinant Ea-3 peptide of rainbow trout pro-IGF-I, 62 amino acid residues (SEQ ID NO: 3) (protein)
chain: RSVRAQRHTDMPRTPKVSTAVQSVDRGTERRTAQHPDKTKPKKEVHQKNSSRGNTGGRNYRM
modifications: Oncorhynchus mykiss
- induction of morphological change (293GP or ZR-75-1 cells): failed to induce any visible morphological change
- mitogenic activity [4]: possess mitogenic activity
- mitogenic activity [5]: possess mitogenic activity

Source: patent US7700353B2, “Compositions and methods for inducing apoptosis in tumor cells” (E-P Therapeutics, Inc., priority 1998, dated 2010)
